In BindingDB's records for doi:10.1021/jm9000242 (Bristol Myers Squibb, 2009):

Target: T1, Corticotropin-releasing factor receptor 1 (Rattus norvegicus, UniProt P35353)
T1 sequence (P35353 whole entry): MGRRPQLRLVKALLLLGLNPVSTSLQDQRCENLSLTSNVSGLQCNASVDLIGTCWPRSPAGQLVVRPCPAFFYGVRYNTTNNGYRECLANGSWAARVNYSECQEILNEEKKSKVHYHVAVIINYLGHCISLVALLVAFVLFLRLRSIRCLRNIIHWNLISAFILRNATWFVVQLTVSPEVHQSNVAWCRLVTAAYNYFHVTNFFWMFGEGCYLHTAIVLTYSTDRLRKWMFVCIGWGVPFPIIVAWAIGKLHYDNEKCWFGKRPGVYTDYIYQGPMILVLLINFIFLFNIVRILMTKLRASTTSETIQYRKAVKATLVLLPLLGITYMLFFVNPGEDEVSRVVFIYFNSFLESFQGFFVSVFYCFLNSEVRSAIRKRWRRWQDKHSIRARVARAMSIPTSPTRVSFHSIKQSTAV
Test: In Vitro Binding Autoradiography
Protocol: Naive rats were sacrificed by decapitation, and the brain and pituitary were collected. Slide-mounted brain sections were preincubated in an assay solution containing [125I]oCRF for 2 h at room temperature. Concentration-related displacement of test compound was assessed by including the compound in the incubation solution. The adjacent sections were incubated under the same conditions in the presence of 1 uM alpha-helical CRF for defining nonspecific binding for CRF receptor. Nonspecific binding for CRF1 receptors was defined by 1 uM DMP696 or CP-154,526. After incubation, the sections were rinsed, dried, and then placed in cassettes against iodine-sensitive storage phosphor-imaging screens (PerkinElmer Life Sciences), and the screens were then digitally scanned with a Cyclone storage phosphor-imaging system (PerkinElmer Life Sciences). Captured storage phosphor images were analyzed with OptiQuant Acquisition and Analysis software (PerkinElmer Life Sciences).

SMILES | IC50 (pH 7.2, 23 °C) [nM] | IC50 (25 °C) [nM]
CC[C@@H](C)Nc1nc(C)nc2c(-c3c(C)cc(OC)cc3OC)c(C)nn12 [Pyrazolo[1,5-a]-1,3,5-triazine, 12-16] | 5.7 | 
CCCN(CC1CC1)c1nc(C)nc2c(-c3c(C)cc(OC)cc3OC)c(C)nn12 [Pyrazolo[1,5-a]-1,3,5-triazine, 12-22] | 1.48 | 
CCCCN(C)c1nc(C)nc2c(-c3c(C)cc(OC)cc3C)c(C)nn12 [Pyrazolo[1,5-a]-1,3,5-triazine, 12-32] |  | 4.22
